Source: patent US20190105260A1, “COMPOSITIONS AND METHODS TO PROMOTE WOUND HEALING” (The Regents of the University of California, priority 2016, published 2019)
Each block holds one compound with its values, some of them ahead of it.

Experiments:
[1] = tested on: bone marrow-derived macrophages (BMDMs), M2 polarization; assay: In vitro macrophage polarization (RT-PCR, flow cytometry); format: cell-based, mouse; settings: for effect on fluoxetine-enhanced M2 polarization (CD206+ cells, flow cytometry): added to fluoxetine, 1 μM Ketanserin, 100 nM NAN-190, 24 hours
Protocol: Bone marrow described macrophages from wild-type C57/B6J mice were harvested and cultured under polarizing conditions towards M0 (no polarization; normal culture medium), M1 (using LPS and IFNγ) or M2 (using IL-4 and IL-13). […] M2 activation status was assessed using RT-PCR (normalized to HSP90) for CD206, Ym-1 and Arg-1. M1 activation status was assessed using TNFα (A, B). C: At day 7 of macrophage maturation, adherent bone marrow derived monocytes in culture were identified with macrophage markers (CD11b and F4/80) using flow cytometry. After 24 hours, CD206 expression was identified in treated group (C). Results were then quantified and reported (D). Data presented as average±SEM. ** p<0.01.
Wild type C57BL/6 male and female mice were used. Bone marrow-derived (BMD) cells were isolated from mouse femurs and tibias. ACK solution (Thermo Fisher catalog 50-983-220) was used for 5 minutes at 37° C. to lyse red blood cells. BMD macrophages (BMDMs) were matured with (20 ng/mL) M-CSF (R&D) for 7 days. On day 7, BMDM phenotype was confirmed with flow cytometry by CD11b and F4/80 markers (Biolegend). Following maturation, BMDMs were either polarized towards M1 lineage with 10 ng/ml LPS (Sigma Aldrich) and 100 ng/ml IFN-g (R&D) or M2 lineage with 20 ng/ml IL-4 (PeproTech) and IL-13 (R&D) in cRPMI (1×RPMI (Cellgro), 10% FBS, 1× sodium pyruvate (GIBCO), 1× penicillin/streptomycin (GIBCO) at 37° C. for 24 hours. Non-polarized BMDMs and M1-polarized BMDMs were used as experimental controls for polarization procedure. M2-polarized BMDMs were co-treated with either PBS or FLX and/or 100 nM NAN-190 or 1 μM Ketanserin. Cells were either collected after 4 hours by scraping and stored in buffer RLT (Qiagen) at −80° C. or were read with flow cytometry after 24 hours and data were appropriately compensated and analyzed by FlowJo.
RT-PCR was performed using PowerUp SYBR Green Master Mix (Thermo/Applied Biosystems). Data was analyzed using the ΔΔCt method and normalized using geometric mean of the housekeeping genes (GAPDH, Hsp90, 18S rRNA). Fold change is shown relative to control groups.

[2] = cited from earlier work
[3] = tested on: CFSE-labeled CD4+CD25- effector T cells stimulated with CD11c+ dendritic cells; assay: Mixed lymphocyte reaction; format: cell-based, mouse; settings: 1 μM fluoxetine, 10 μM serotonin, 3,000 AMSC or 1,500 BMSC added to co-cultures
Protocol: Panel A: In a mixed lymphocyte reaction, 250,000 Carboxyfluorescein succinimidyl ester (CFSE)-labeled CD4+CD25-effector T cells were cultured with 100,000 CD11c+ dendritic cells as antigen. […] Proliferation was measured based on CFSE dilution. […] P values were derived using a 2-tailed t-test.
Mixed lymphocyte reactions were performed as described. Briefly, allogenic effector B6 CF SE-labeled T cells were incubated in a 96-well plate (250,000/well) with CD11c+ Bal/b APC (100,000/well) that were purified from bulk splenocytes on anti-CD11c-coupled Milteny microbeads. […] Proliferation was measured based on CFSE dilution.

[4] = tested on: Neonatal Human Keratinocytes (NHKs); assay: Scratch wound assay; format: cell-based
Protocol: (§1) FIGS. 2A-C illustrate that serotonin (5-HT) increases keratinocyte migratory speed and re-epithelialization in a scratch wound ex vivo model, likely through the ERK-STAT3-NFkB pathway.
Neonatal Human Keratinocytes (NHKs) were either non-treated (Control) or treated with 5-HT (1 μM) and FLX (0.01 μM, 0.1 μM, 1 μM) and/or 5HTR1A blocker (100 nM NAN190) and/or 5HTR2A antagonist (1 μM Ketanserin or KET). NHKs from at least 3 different donors were plated at fully confluent density and treated with Mitomycin to prevent proliferation. P-200 tips were used to induce a scratch wound in the middle of each well and time-lapse images were recorded every 30 minutes for 6 hours and % healed were calculated as previously described. Data represented as Mean±SEM. Student t-tests were used for statistical analysis. *, p<0.05; **, p<0.01; ***, p<0.001.
NHKs were isolated and cultured from human foreskin as previously reported. […]
NHKs from 3 different donors were plated on collagen-coated 12-well plates at fully confluent density and treated with Mitomycin C to prevent proliferation. P-200 tips were used to induce a scratch wound in the middle of each well and time-lapse images were recorded every 30 minutes for 6 hours and % healed were calculated as following: % Healed=([(SA)]_(t=0)−[(SA)]_(t=6))/[(SA)]_(t=0) which SA represents surface area of the scratch wound gap at 0-hour (t=0) or 6-hour time point. […]

[5] = tested on: Db/Db female mice, diabetic model of impaired wound healing; assay: In vivo splinted full-thickness excisional wound model, re-epithelialization analysis; design: species or system mouse; settings: for re-epithelialization compared to PEG vehicle control: daily topical 0.2% fluoxetine or 0.01% timolol, day 12; for re-epithelialization vs vehicle control: daily topical 0.2% fluoxetine or 2% serotonin in 5% polyethylene glycol, day 10
Protocol: Panel B: Histomorphometric analysis of wounds. Representative histology sections for each group were chosen. Following euthanasia of animals, wounds were excised, biopsied and bisected. Wound tissue was fixed in paraformaldehyde for 12-16 hours and then paraffin embedded. Serial 5 μm sections were obtained from the center of the wound and the section with the largest wound bed (as defined by distance between hair follicles) was stained with hemotoxylin and eosin. Images were taken using 10× objective on a Keyance microscope. Panels C-D: Re-epithelialization was determined on sections created as in panel B. Image J analysis software was utilized to divide the re-epithelialized tissue (distance from hair follicle to remaining wound) by the entire original wound surface (as defined as distance between hair follicles). Panel D provides the distribution of data depicted in Panel C. P values were derived using a 2-tailed t-test.
13 week-old Db/Db female mice underwent full-thickness excisional biopsies with 8 mm punch biopsies. Wounds were splinted to prevent contraction. At day 12, animals were sacrificed and wounds were harvested to assess re-epithelialization. Representative histology sections for each group were chosen. Following euthanasia of animals, wounds were excised, biopsied and bisected. Wound tissue was fixed in paraformaldehyde for 12-16 hours and then paraffin embedded. Serial […] sections were obtained from the center of the wound and the section with the largest wound bed (as defined by distance between subcutaneous fat tissue) was stained with hemotoxylin and eosin. Images were taken using 10× objective on a Keyance microscope. (A) Re-epithelialization was determined on sections created. Image J analysis software was utilized to divide the re-epithelialized tissue by the entire original wound surface. (B) Percent of wounds at different stages of re-epithelialization was quantified. Data represented as Mean±SEM. P values were derived using a 2-tailed t-test. N=5/group.
13 week-old Db/Db female mice underwent full-thickness excisional wounding with 8 mm punch biopsy tool. All wounds were splinted to prevent contraction. […] At day 11, animals were sacrificed and wounds were harvested to assess re-epithelialization. Representative histology sections for each group were chosen. Following euthanasia of animals, wounds were excised, biopsied and bisected. Wound tissue was fixed in paraformaldehyde for 12-16 hours and then paraffin embedded. Serial […] sections were obtained from the center of the wound and the section with the largest wound bed (as defined by distance between subcutaneous fat tissue) was stained with hemotoxylin and eosin. Images were taken using 10× objective on a Keyance microscope. Re-epithelialization was determined on sections created. Image J analysis software was utilized to divide the re-epithelialized tissue by the entire original wound surface. Data represented as Mean±SEM. N=5/group.
Diabetic status (blood glucose >300 mg/dl) was confirmed in female Db/Db mice at age 11 weeks. At age 13 weeks, mice underwent hair removal and synchronization of follicle cycling through depilation and shaving. Synchronization was confirmed based on lack of skin pigmentation in included mice. 1 day after synchronization, 13-week-old Db/Db female mice underwent full-thickness excisional wounding using a splinted model as described. Briefly, 8 mm punch biopsies were used to make full-thickness excisional wounds. […]

[6] = tested on: wound beds of Db/Db female mice; assay: Immunohistochemistry of wound beds (Gr-1, F4/80, CD31); format: in vivo, mouse; settings: topical treatment, day 10
Protocol: 13 week-old Db/Db female mice underwent full-thickness excisional biopsies with 8 mm punch biopsies. Wounds were splinted to prevent contraction. At day 10, animals were sacrificed and wounds were harvested to assess re-epithelialization. Representative histology sections for each group were chosen. Following euthanasia of animals, wounds were excised, biopsied and bisected. Wound tissue was fixed in paraformaldehyde for 12-16 hours and then paraffin embedded. Serial […] sections were obtained from the center of the wound and the section with the largest wound bed (as defined by distance between subcutaneous fat tissue—indicated by yellow arrows in figure). Images were taken using 10× objective on a Keyance microscope. Sections were stained with antibody to Gr-1 (A), CD31 (B) or F4/80 (C) to assess neutrophil, endothelial cell or macrophage numbers, respectively, in the wound beds. Wound bed area was outlined in Spectrum software (demarcated by yellow arrows in this figure), which then calculated the number of positive cells. Data is presented as positive cells/mm^2. P values were derived using a 1-tailed t-test. *, p<0.05; **, p<0.01. N=5/group.
Following euthanasia, wound tissue was harvested and processed as described above. Antibodies: F4/80 (Serotec, now BioRad MCA497A488, clone CI:A3-1, 1:100 dilution); GR-1 (Biolegend, catalog number 108402, clone RB6-8C5, 1:200 dilution); CD31 (Santa Cruz, catalog number sc1506, clone M20, 1:1800 dilution). Wound beds were analyzed in Spectrum software (UC Davis). Wound beds were outlined based on subcutaneous fat presence and positive cells were calculated as #/mm^2 of wound bed.

[7] = tested on: HaCaT human keratinocyte cell line; assay: Single cell migration assay; format: cell-based; settings: HaCaT cells
Source text: as §1

BMSC [8] = assay: BMSC migration assay; format: cell-based; settings: 10 uM 5HT vs untreated BMSC; BMSC pooled from 3 donors
NF-kB in keratinocytes = assay: Multiplex assay, NF-kB; format: cell-based, human; settings: 10 μM 5-HT for 6 hours, NHKs
Protocol: as §1
(§2) NHKs from 3 different donors were cultured in 100 mm dishes until 80% confluent and treated with 10 μM 5-HT for 6 hours. Protein lysates were collected and quantified with Bradford assays before proceeding according to manufacturer's protocol (Millipore Multiplex Assay (MILLIPLEX® MAP 48-680MAG). Results were normalized to total protein levels quantified separately by Bradford protein assays.

[9] = tested on: phosphorylated ERK in keratinocytes; assay: Multiplex assay, phosphorylated ERK; format: cell-based, human; settings: 10 μM 5-HT for 6 hours, NHKs
Protocol: as §1, §2

[10] = tested on: phosphorylated STAT3 in keratinocytes; assay: Multiplex assay, phosphorylated STAT3; format: cell-based, human; settings: 10 μM 5-HT for 6 hours, NHKs
Protocol: as §1, §2

[11] = Serotonin degradation in culture (ELISA); format: physicochemical; settings: after 24 hours in culture, in both the presence and absence of BMSC
Source text: Serotonin is rapidly degraded when exposed to in vitro in culture conditions.

BMSC [12] = assay: BMSC proliferation in vitro; format: cell-based; settings: 10 uM 5HT vs untreated BMSC; BMSC pooled from 3 donors
[13] = 100 nM fluoxetine, after 4 hours of polarization

Compound: O=C(c1ccc(F)cc1)C1CCN(CCn2c(=O)[nH]c3ccccc3c2=O)CC1 [Ketanserin]
effect on fluoxetine-enhanced M2 polarization (CD206+ cells, flow cytometry) [1]: reversed

Compound: COc1ccccc1N1CCN(CCCCN2C(=O)c3ccccc3C2=O)CC1 [NAN190]
effect on fluoxetine-enhanced M2 polarization (CD206+ cells, flow cytometry) [1]: reversed

Compound: CC(C)(C)NCC(O)COc1cccc2c1CC(O)C(O)C2 (centres unmarked) [Nadolol]
lipid solubility [2]: low

Compound: CNCCC(Oc1ccc(C(F)(F)F)cc1)c1ccccc1 (centres unmarked) [fluoxetine]
T cell proliferation (CFSE dilution) [3]: significantly inhibit
migratory speed of human keratinocytes ([4]; fluoxetine (0.01-1 μM) in the presence of serotonin (1 μM), 6 hours): significantly increased
re-epithelialization compared to PEG vehicle control [5]: increased
re-epithelialization vs vehicle control [5]: significantly improved
increase in re-epithelialization compared to INTEGRA alone ([5]; day 11, all wounds with INTEGRA matrix, 1 μM fluoxetine daily, 250,000 MSC): 17%
Arg-1 transcripts (RT-PCR) [1, 13]: significant increased
CD206 transcripts (RT-PCR) [1, 13]: significant increased
Ym-1 transcripts (RT-PCR) [1, 13]: significant increased
M2 polarization of naïve macrophages (CD206+ cells, flow cytometry) ([1]; after 24 hours of M2 polarization): enhanced
angiogenesis (CD31+ endothelial cells) in wound beds vs vehicle [6]: significantly increased
macrophage (F4/80+ cells) numbers in wound beds vs vehicle [6]: significantly increased
neutrophils (Gr-1+ cells) in wound beds vs vehicle [6]: significantly fewer

serotonin in culture lost [11]: Over 50%
Compound: NCCc1c[nH]c2ccc(O)cc12 [serotonin]
T cell proliferation (CFSE dilution) [3]: significantly inhibit
migration of keratinocytes ([4]; primary keratinocytes from 3 donors, 6-hour time point, mitomycin-treated): enhance migration of keratinocytes in a dose-dependent manner
keratinocyte migration (single cell migration) [7]: increases
BMSC migratory speed (BMSC [8]): significantly increased
NF-kB protein (NF-kB in keratinocytes): increase
re-epithelialization vs vehicle control [5]: significantly improved
phosphorylation of ERK [9]: significantly increased
phosphorylation of STAT3 [10]: significantly increased
BMSC proliferation (BMSC [12]): significantly increased
angiogenesis (CD31+ endothelial cells) in wound beds vs vehicle [6]: increasing
macrophage (F4/80+ cells) numbers in wound beds vs vehicle [6]: increasing
neutrophils (Gr-1+ cells) in wound beds vs vehicle [6]: significantly fewer

Compound: CC(C)(C)NC[C@H](O)COc1nsnc1N1CCOCC1 [timolol]
re-epithelialization compared to PEG vehicle control [5]: increased
